# Reference: PMC4608732, “Phosphorylation and Internalization of Lysophosphatidic Acid Receptors LPA1, LPA2, and LPA3” (PLoS ONE, 2015)
# Legend:
# LPA1 receptor [1] = biological target: T1, LPA1 receptor (Mus musculus, UniProt P61793); experiment: Heterologous (PMA) / homologous (LPA) desensitization of LPA-induced calcium response, LPA1 cells; assay type: cell-based; conditions: LPA1 cells
# T1 construct: expressed in transfected cells
# Procedure: (§1) This procedure has been described previously. Briefly, cells were loaded with 2.5 μM Fura-2 AM in Krebs–Ringer–Hepes containing 0.05% bovine serum albumin (pH 7.4) for 1 h at 37°C and then washed to eliminate unincorporated indicator. Determinations were carried in an AMINCO-Bowman Series 2 luminescence spectrometer, employing 340 and 380 nm excitation wavelengths and an emission wavelength of 510 nm; chopper interval was 0.5 sec. The intracellular calcium concentration was calculated as described by Grynkiewicz et al.. In the experiments where prolonged incubation was required (resensitization studies), cells were stimulated, washed, and the incubation was continued in the presence of Fura-2 AM, to avoid dye depletion.
# (§2) Agonists-mediated decreases occurred in a concentration-dependent fashion, with a maximum at the concentration of ~ 100 nM. […] It is worth noticing that the shift in the curves was more pronounced in LPA1- or LPA3-expressing cells, than in those that expressed the LPA2 subtype.
# (§3) Plotted are the increases in calcium as the percentage of that obtained in cells preincubated without any agent as mean ± S. E. M. of 6 experiments using different cell preparations.
# LPA2 receptor [2] = biological target: T2, LPA2 receptor (Homo sapiens, UniProt Q9HBW0); experiment: Heterologous (PMA) / homologous (LPA) desensitization of LPA-induced calcium response, LPA2 cells; assay type: cell-based; conditions: LPA2 cells
# T2 sequence (Q9HBW0 whole entry): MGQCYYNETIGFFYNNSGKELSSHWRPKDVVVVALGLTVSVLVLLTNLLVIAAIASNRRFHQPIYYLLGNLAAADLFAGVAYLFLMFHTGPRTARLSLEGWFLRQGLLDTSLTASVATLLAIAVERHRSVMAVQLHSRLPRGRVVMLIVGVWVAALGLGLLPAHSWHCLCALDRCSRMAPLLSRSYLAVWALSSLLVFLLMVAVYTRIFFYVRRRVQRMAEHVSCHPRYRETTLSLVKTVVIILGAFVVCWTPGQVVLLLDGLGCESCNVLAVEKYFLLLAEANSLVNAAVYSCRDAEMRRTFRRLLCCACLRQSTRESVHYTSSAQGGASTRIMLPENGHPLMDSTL
# Procedure: as §1, §2, §3
# LPA3 receptor [3] = biological target: T3, LPA3 receptor (Homo sapiens, UniProt Q9UBY5); experiment: Heterologous (PMA) / homologous (LPA) desensitization of LPA-induced calcium response, LPA3 cells; assay type: cell-based; conditions: LPA3 cells
# T3 sequence (Q9UBY5 1-353): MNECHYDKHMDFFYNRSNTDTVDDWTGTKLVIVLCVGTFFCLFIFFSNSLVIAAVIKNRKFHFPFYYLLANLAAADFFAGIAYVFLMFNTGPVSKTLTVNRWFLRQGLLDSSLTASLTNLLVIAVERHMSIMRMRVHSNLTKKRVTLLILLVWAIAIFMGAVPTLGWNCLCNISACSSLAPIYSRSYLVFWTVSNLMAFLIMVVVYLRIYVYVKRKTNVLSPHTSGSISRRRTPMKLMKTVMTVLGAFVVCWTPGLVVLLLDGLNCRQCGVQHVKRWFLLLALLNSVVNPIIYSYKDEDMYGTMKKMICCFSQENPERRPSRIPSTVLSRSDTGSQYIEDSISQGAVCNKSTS
# Procedure: as §1, §2, §3
# LPA1 receptor [4] = biological target: T1, LPA1 receptor; experiment: LPA1 receptor phosphorylation ([32P]Pi labeling, immunoprecipitation); assay type: cell-based
# Procedure: (§4) The procedure was very similar to that previously described to study LPA1 receptor phosphorylation. In brief, cells were incubated in phosphate-free Dulbecco’s modified Eagle’s medium containing 100 μCi/ml [^32P]Pi for 3 h at 37°C. LPA1- and LPA2-expressing cells were cultured in 6 well plates, whereas those expressing LPA3 receptors were cultured in 10 cm dishes. Labeled cells were stimulated with the agents tested and then washed twice with ice-cold phosphate buffered saline and solubilized in buffer containing 10 mM Tris, 150 mM NaCl, 1% sodium cholate, 1% Nonident P40, protease and phosphatase inhibitors, pH 7.4 [11, 12, 14]. The lysates were incubated overnight with protein A-agarose and anti-GFP serum with constant agitation at 4°C. Samples were washed and the pellets containing the immunocomplexes were solubilized in Laemmli’s sample buffer containing 5% β-mercaptoethanol. Proteins were separated using 10% SDS-PAGE and electrotransferred onto polyvinyliden fluoride membranes. Receptor phosphorylation was analyzed with a Molecular Dynamics Typhoon PhosphorImager and the ImageJ software (http://rsb.info.nih.gov/ij/).
# LPA2 receptor [5] = biological target: T2, LPA2 receptor; experiment: LPA2 receptor phosphorylation ([32P]Pi labeling, immunoprecipitation); assay type: cell-based
# Procedure: as §4
# LPA3 receptor [6] = biological target: T3, LPA3 receptor; experiment: LPA3 receptor phosphorylation ([32P]Pi labeling, immunoprecipitation); assay type: cell-based
# ERK 1/2 = ERK 1/2 phosphorylation (Western blotting) in C9 cells overexpressing LPA1-3; assay type: cell-based, rat
# Procedure: Cells were cultured to near confluence in 6 well plates and stimulated with the agents tested for the times indicated. Total cellular extracts were obtained by lysing the cells in Laemmli’s sample buffer containing 5% β-mercaptoethanol. The cell extracts were subject to 10% SDS-PAGE and transferred to nitrocellulose membranes. Membranes from samples obtained in parallel were incubated overnight at 4°C, with anti-pERK 1/2 (1:2000) or anti ERK 1/2 (1:2000). The membranes were washed and incubated for 1 h at room temperature with a horseradish peroxidase-conjugated secondary antibody (1:10,000) for enhanced chemiluminescence detection.
# wild-type C9 cells = experiment: Intracellular calcium concentration response to LPA, wild type C9 cells; assay type: cell-based, rat
# Procedure: (§5) C9 cells (Clone 9, rat hepatic epithelial cells, CRL-1439™), obtained directly from American Type Culture Collection, were cultured in Ham’s F12 Kaighn’s modification medium supplemented with 10% fetal bovine serum, 100 μg/ml streptomycin, 100 units/ml penicillin and 0.25 μg/ml amphotericin B at 37°C under a 95% air and 5% CO2 atmosphere, as described previously. The medium was replaced with one containing 1% fetal bovine serum, 12–16 h before the experiment. C9 cells stably expressing the mouse LPA1 receptor fused at the carboxyl termini with eGFP were those previously described. […] As depicted in”Fig A in S1 File”, expression of LPA1 and LPA2 receptors was similar (~80%) whereas that of LPA3 was consistently lower (~60%), as evidenced by fluorescence imaging and flow cytometry. Flow cytometry was performed using an Attune NxT Acoustic Focusing Cytometer, employing excitation of 488 nm; data were analyzed using the Attune cytometric software included with the equipment.
# (§6) This procedure has been described previously. […] Determinations were carried in an AMINCO-Bowman Series 2 luminescence spectrometer, employing 340 and 380 nm excitation wavelengths and an emission wavelength of 510 nm; chopper interval was 0.5 sec. The intracellular calcium concentration was calculated as described by Grynkiewicz et al.. […]
# LPA1 receptor [7] = biological target: T1, LPA1 receptor; experiment: Intracellular calcium concentration response to LPA, C9 cells overexpressing LPA1; assay type: cell-based
# Procedure: as §5, §6
# LPA2 receptor [8] = biological target: T2, LPA2 receptor; experiment: Intracellular calcium concentration response to LPA, C9 cells overexpressing LPA2; assay type: cell-based
# Procedure: as §5, §6
# LPA3 receptor [9] = biological target: T3, LPA3 receptor; experiment: Intracellular calcium concentration response to LPA, C9 cells overexpressing LPA3; assay type: cell-based; conditions: cells over-expressing LPA3
# Procedure: C9 cells (Clone 9, rat hepatic epithelial cells, CRL-1439™), obtained directly from American Type Culture Collection, were cultured in Ham’s F12 Kaighn’s modification medium supplemented with 10% fetal bovine serum, 100 μg/ml streptomycin, 100 units/ml penicillin and 0.25 μg/ml amphotericin B at 37°C under a 95% air and 5% CO2 atmosphere, as described previously [11]. The medium was replaced with one containing 1% fetal bovine serum, 12–16 h before the experiment. C9 cells stably expressing the mouse LPA1 receptor fused at the carboxyl termini with eGFP were those previously described [11]. […] Flow cytometry was performed using an Attune NxT Acoustic Focusing Cytometer, employing excitation of 488 nm; data were analyzed using the Attune cytometric software included with the equipment.
# Briefly, cells were loaded with 2.5 μM Fura-2 AM in Krebs–Ringer–Hepes containing 0.05% bovine serum albumin (pH 7.4) for 1 h at 37°C and then washed to eliminate unincorporated indicator. Determinations were carried in an AMINCO-Bowman Series 2 luminescence spectrometer, employing 340 and 380 nm excitation wavelengths and an emission wavelength of 510 nm; chopper interval was 0.5 sec. The intracellular calcium concentration was calculated as described by Grynkiewicz et al. [27]. […]
# LPA1 receptor [10] = biological target: T1, LPA1 receptor; experiment: LPA1 receptor internalization, confocal imaging; assay type: cell-based; conditions: LPA1 cells
# Procedure: (§7) Cells were seeded at approximately 30% confluence onto glass-bottomed Petri dishes and cultured for 3 h at 37°C in media containing 1% serum. After treatment, cells were washed three times with phosphate buffered saline and fixed with 4% paraformaldehyde in 0.1 M phosphate buffer for 20 min at room temperature; samples were then washed three additional times with phosphate buffered saline. The fluorescent images were acquired with an Olympus Fluoview FV10 confocal microscope with a water-immersion objective (60X). To determine receptor internalization, the plasma membrane was delineated utilizing the differential interference contrast imaging, and fluorescence in this region was quantified employing the ImageJ software. At least 5 or 6 images of different cultures were taken for each condition. Data were normalized as follows: for each experiment, fluorescence (arbitrary units) at the plasma membrane of baseline samples were pooled and the average was considered as 100%.
# LPA2 receptor [11] = biological target: T2, LPA2 receptor; experiment: LPA2 receptor internalization, confocal imaging; assay type: cell-based; conditions: LPA2 cells
# Procedure: as §7
# LPA3 receptor [12] = biological target: T3, LPA3 receptor; experiment: LPA3 receptor internalization, confocal imaging; assay type: cell-based; conditions: LPA3 cells
# Procedure: as §7
# [13] = 15 min preincubation with inhibitor, 1 μM LPA
# [14] = 15 min preincubation with inhibitor, 1 μM PMA
# [15] = preincubation 10 min, washed, challenge 1 μM LPA
# [16] = 1 μM LPA 10 min, washed, incubated to 60 or 120 min
# T1 sequence (P61793 whole entry): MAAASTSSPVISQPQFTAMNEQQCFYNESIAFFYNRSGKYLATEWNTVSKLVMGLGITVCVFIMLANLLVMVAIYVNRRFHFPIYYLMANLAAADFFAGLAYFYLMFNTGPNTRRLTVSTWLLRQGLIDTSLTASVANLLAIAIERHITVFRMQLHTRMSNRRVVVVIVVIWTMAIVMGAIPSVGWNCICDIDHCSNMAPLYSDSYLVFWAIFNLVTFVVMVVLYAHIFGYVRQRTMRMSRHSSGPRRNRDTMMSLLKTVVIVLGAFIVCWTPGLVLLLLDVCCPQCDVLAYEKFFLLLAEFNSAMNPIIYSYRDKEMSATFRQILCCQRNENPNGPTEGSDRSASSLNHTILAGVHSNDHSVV
structure (smiles),measurement,setting,value
"CN(C)CCCn1cc(C2=C(c3c[nH]c4ccccc34)C(=O)NC2=O)c2ccccc21 [bisindolylmaleimide I, Bisindolylmaleimide I]",effect on LPA-induced desensitization,LPA1 receptor [1]; [13],unable to alter LPA-induced desensitization
same,effect on PMA-induced desensitization,LPA1 receptor [1]; [14],markedly diminished PMA-induced desensitization
same,effect on LPA-induced desensitization,LPA2 receptor [2]; [13],unable to alter LPA-induced desensitization
same,effect on PMA-induced desensitization,LPA2 receptor [2]; [14],markedly diminished PMA-induced desensitization
same,effect on LPA-induced desensitization,LPA3 receptor [3]; [13],unable to alter LPA-induced desensitization
same,effect on PMA-induced desensitization,LPA3 receptor [3]; [14],markedly diminished PMA-induced desensitization
COc1cc2ncnc(Nc3cccc(Cl)c3)c2cc1OC [AG1478],effect on LPA-induced receptor phosphorylation,"LPA1 receptor [4]; 10 μM AG1478 30 min, then 1 μM LPA 15 min, LPA1 cells",markedly reduced (but did not abolish)
same,effect on LPA-induced receptor phosphorylation,"LPA2 receptor [5]; 10 μM AG1478 30 min, then 1 μM LPA 15 min, LPA2 cells",markedly reduced (but did not abolish)
same,effect on LPA-induced receptor phosphorylation,"LPA3 receptor [6]; 10 μM AG1478 30 min, then 1 μM LPA 15 min, LPA3 cells",markedly reduced (but did not abolish)
same,effect on baseline phospho-ERK signal,"ERK 1/2; 10 μM AG1478 30 min, cells expressing LPA1 receptors",did not alter it
same,effect on baseline phospho-ERK signal,"ERK 1/2; 10 μM AG1478 30 min, cells overexpressing LPA2, statistically insignificant",decrease it
same,effect on baseline phospho-ERK signal,"ERK 1/2; 10 μM AG1478 30 min, cells overexpressing LPA3, statistically significant",decrease it
same,effect on LPA- and EGF-induced ERK phosphorylation,"ERK 1/2; 10 μM AG1478 30 min, then 1 μM LPA or 100 ng/ml EGF 5 min",clearly diminished the effect of both growth factors
CCCCCCCC/C=C\CCCCCCCC(=O)OC[C@@H](O)COP(=O)(O)O [LPA],maximal calcium concentration increase,wild-type C9 cells,150 to 200 nM
same,EC50,"wild-type C9 cells; read-out: EC50, increase in intracellular calcium concentration",200 to 400 nM
same,EC50,"LPA1 receptor [7]; LPA1-overexpressing cells, read-out: EC50, increase in intracellular calcium concentration",200 to 400 nM
same,calcium response (increase of the cation's concentration),LPA1 receptor [7]; cells over-expressing LPA1,450 to 600 nM
same,"LPA concentration response curve, intracellular calcium","LPA2 receptor [8]; LPA2-overexpressing cells, curve shifted to the right",no clear saturation was achieved at the concentrations tested
same,calcium response (increase of the cation's concentration),LPA2 receptor [8]; cells over-expressing LPA2,450 to 600 nM
same,calcium response (increase of the cation's concentration),LPA3 receptor [9],~ 300 nM
same,concentration giving maximum homologous desensitization,LPA1 receptor [1]; [15],~ 100 nM
same,concentration giving maximum homologous desensitization,LPA2 receptor [2]; [15],~ 100 nM
same,concentration giving maximum homologous desensitization,LPA3 receptor [3]; [15],~ 100 nM
same,time to maximum receptor phosphorylation,"LPA1 receptor [4]; 1 μM agent, LPA1 cells",≤ 15 min
same,concentration at which receptor phosphorylation saturates,"LPA1 receptor [4]; 15 min incubation, LPA1-overexpressing cells",~ 1 μM
same,EC50,"LPA1 receptor [4]; 15 min incubation, LPA1-overexpressing cells, read-out: EC50, receptor phosphorylation",10 to 30 nM
same,time to maximum receptor phosphorylation,"LPA2 receptor [5]; 1 μM agent, LPA2 cells",≤ 15 min
same,"concentration-response curve, receptor phosphorylation","LPA2 receptor [5]; 15 min incubation, LPA2-overexpressing cells, shift to higher concentrations",no clear saturation was obtained
same,time to maximum receptor phosphorylation,"LPA3 receptor [6]; 1 μM agent, LPA3 cells",≤ 15 min
same,concentration at which receptor phosphorylation saturates,"LPA3 receptor [6]; 15 min incubation, LPA3-overexpressing cells",~ 1 μM
same,increase in ERK phosphorylation,"ERK 1/2; 1 μM LPA, 5 min, cells overexpressing LPA1-3",~ 2 fold
same,recovery of fluorescence at the membrane level after washing,LPA1 receptor [10]; [16],recovered rapidly and completely
same,receptor internalization (fluorescence at the plasma membrane),"LPA1 receptor [10]; 1 μM agent, 30 or 60 min",markedly decreasing fluorescence at the plasma membrane level
same,recovery of fluorescence at the membrane level after washing,LPA2 receptor [11]; [16],slowly
same,"receptor internalization (decrease in fluorescence at the plasma membrane, compared with other subtypes)","LPA2 receptor [11]; 1 μM agent, 30 or 60 min",much less intense
same,recovery of fluorescence at the membrane level after washing,LPA3 receptor [12]; [16],only partially and also slowly
same,receptor internalization (fluorescence at the plasma membrane),"LPA3 receptor [12]; 1 μM agent, 30 or 60 min",markedly decreasing fluorescence at the plasma membrane level
